In PubChem BioAssay (NCI) one finds GI50 and TGI data, which are given here for ten compounds.

Molecules are shown by their SMILES.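 Five compound concentrations were applied to cells in 96-well plates for 48 hours; endpoints were derived by simple linear interpolation of the resulting dose-response curve. GI50 is the concentration that inhibits growth by half. TGI denotes the concentration required for complete inhibition of growth.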

What all share (test): DTP human tumour cell line panel, 48 h
Assay [1] concerns ACHN renal.
Assay [2] relates to EKVX NSCLC.
The subject of assay [3] is NCI/ADR-RES ovarian.
Assay [4] deals with SF-295 CNS.
Assay [5] concerns NCI-H226 lung.
In assay [6] the test system is HCC-2998 colon.
The test system of assay [7] is SNB-75 CNS.
Assay [8] deals with UO-31 renal.

For orientation: GI50 means the concentration at which growth is held to half of that of the control. As usually defined, the TGI is the concentration at which net growth stops. A low value points to greater sensitivity of the cells. Take `Cn1ncc2c(N)nc(N3CCCCC3)nc21`: the GI50 in assay [1] was 33.6 µM; in assay [2], 91.2 µM; in assay [3], greater than 100 µM; in assay [4], 26.5 µM; in assay [5], 22.1 µM; in assay [6] it was 18.6 µM. Also, the GI50 in assay [7] is 29.7 µM; in assay [8], 43 µM. The TGI in assay [1] is greater than 100 µM; in assay [2], greater than 100 µM; in assay [3], greater than 100 µM; in assay [4], greater than 100 µM; in assay [5] it was 48.3 µM; in assay [6] it was 58.6 µM. Besides, the TGI in assay [7] and in assay [8] was greater than 100 µM throughout.

With `Nc1ccc2c(c1)NCCN2`, the concentration for total growth inhibition (TGI) is greater than 100 µM in assay [1]; greater than 100 µM in assay [2]; greater than 100 µM in assay [3]; greater than 100 µM in assay [4]; 52.2 µM in assay [5]; greater than 100 µM in assay [6]. Moreover, the TGI in assay [7] and in assay [8] was greater than 100 µM each time.

For the compound `NNc1cccc(/C=C/c2ccccc2)cc1=O`, the GI50 in assay [1] was 7.27 µM; in assay [2] it was 3.27 µM; in assay [3], 4.36 µM; in assay [5], 19.9 µM; in assay [6], 16.8 µM; in assay [7], 31 µM. The GI50 in assay [8] is 1.86 µM. The TGI in assay [1] was greater than 100 µM; in assay [2] it was 35.8 µM; in assay [3], greater than 100 µM; in assay [5] it was greater than 100 µM; in assay [6], greater than 100 µM; in assay [7], greater than 100 µM. The total growth inhibition concentration (TGI) in assay [8] was 9.24 µM.

In the case of `CCOC(=O)C(=Cc1ccccc1[N+](=O)[O-])C(=O)OCC`, the GI50 in assay [1] was 2.06 µM; in assay [2], 6.61 µM; in assay [3] it was 2.59 µM; in assay [4], 5.38 µM; in assay [5], 3.26 µM; in assay [6], 3.48 µM. Further, the GI50 is 2.57 µM in assay [7] and 4.52 µM in assay [8]. The TGI in assay [1] amounted to 4.31 µM; in assay [2], 20.9 µM; in assay [3] it was 7.8 µM; in assay [4], 20.1 µM; in assay [5], 12.8 µM; in assay [6], 10.7 µM. Moreover, the TGI in assay [7] was 9.68 µM; in assay [8], 15.9 µM.

`Clc1ccc2[nH]cc(-c3nc(-c4c[nH]c5ncccc45)cs3)c2c1`: the GI50 in assay [1] was 2.82 µM; in assay [2], 2.16 µM; in assay [3], 3.09 µM; in assay [4], 2.74 µM; in assay [5] it was 3.69 µM; in assay [6], 4.63 µM. The GI50 in assay [7] was 3.25 µM; in assay [8], 1.36 µM. Besides, the TGI in assay [1] is greater than 100 µM; in assay [2] it was 22.3 µM; in assay [3], 16.9 µM; in assay [4] it was 7.66 µM; in assay [5], 22.2 µM; in assay [6], 21.8 µM. The results for the TGI in assay [7] and in assay [8] were 35.3 µM and 28.2 µM, respectively.

As for `CC[C@@]1(O)C(=O)NCc2c1cc1n(c2=O)Cc2cc3c(N)cccc3nc2-1`, the GI50 in assay [1] is 1.23 µM; in assay [2], 16.5 µM; in assay [3], 2.29 µM; in assay [4] it was 1.01 µM; in assay [5], 2.03 µM; in assay [6], 2.04 µM. In addition, the GI50 in assay [7] is 0.873 µM; in assay [8], 0.866 µM. Moreover, the TGI in assay [1] is greater than 46.6 µM; in assay [2] it was greater than 51.7 µM; in assay [3] it was 38.5 µM; in assay [4] it was greater than 46.8 µM; in assay [5] it was greater than 38.9 µM; in assay [6] it was 9.24 µM. The results for the TGI in assay [7] and in assay [8] were greater than 18.3 µM and 7.12 µM, respectively.

`O=c1nc(Nc2cccc(Cl)c2)oc2cc(Cl)oc(=O)c12`: the GI50 is 5 µM in assay [1]; 16.9 µM in assay [2]; 13.4 µM in assay [3]; 12.1 µM in assay [4]; 17.1 µM in assay [5]; 13.4 µM in assay [6]. For the same compound, the GI50 in assay [7] was 6.96 µM; in assay [8], 5.46 µM. Besides, the TGI in assay [1] worked out at 24.8 µM; in assay [2] it was 39.8 µM; in assay [3], 70.5 µM; in assay [4] it was 43 µM; in assay [5], 73.6 µM; in assay [6], 27.5 µM. For the same compound, the values for the TGI in assay [7] and in assay [8] were 21.4 µM and 21.7 µM, respectively.

As to `O=C(Nc1ccc(F)cc1)c1c(NC(=O)C(F)(F)F)sc2c1CCCCC2`, the GI50 in assay [1] was 2.11 µM; in assay [3], 2.01 µM; in assay [4], 1.01 µM; in assay [5], 1.76 µM; in assay [6], 2.06 µM; in assay [7], 1.34 µM. For the same compound, the GI50 in assay [8] is 1.87 µM. For the same compound, the TGI amounted to 7.93 µM in assay [1]; 7.82 µM in assay [3]; 3.26 µM in assay [4]; 5.46 µM in assay [5]; 10 µM in assay [6]; 5.57 µM in assay [7]. Further, the total growth inhibition concentration (TGI) in assay [8] stood at 6.9 µM.

For the compound `Nc1nnc2cc(Cl)ccc2n1`, the GI50 in assay [1] is greater than 100 µM; in assay [2], 23.6 µM; in assay [3] it was greater than 100 µM; in assay [4], 74 µM; in assay [5], greater than 100 µM; in assay [6], greater than 100 µM. The GI50 in assay [7] is 9.06 µM; in assay [8] it was 30.2 µM. The TGI in assay [1], in assay [2], in assay [3], in assay [4], in assay [5] and in assay [6] was greater than 100 µM each time. Also, the TGI in assay [7] and in assay [8] was greater than 100 µM each time.

`N=C(N=C(N)N)N1CCN(c2ccncc2)CC1`: the GI50 in assay [1], in assay [3], in assay [4], in assay [5], in assay [6] and in assay [7] was greater than 1000 µM each time. The GI50 in assay [8] was greater than 1000 µM. The TGI in assay [1], in assay [3], in assay [4], in assay [5], in assay [6] and in assay [7] was greater than 1000 µM throughout. The compound further had a TGI in assay [8] greater than 1000 µM.
